Measured values reported in US11339171B2, “MDM2 inhibitors” (Gan & Lee Pharmaceuticals, priority 2017, dated 2022).
“And” between values parts separate entries of the source, which are not always exact repeats. Equal entries are not always repeated. Where two headings read alike, the source gives them in different places.

Columns and labels:
[1] = target: T1, MDM2 (Homo sapiens, UniProt Q00987); experiment: Inhibition test of MDM2-P53 (GST-MDM2, Biotin-P53, Anti-GST-Tb, SA-XL665); format: binding
T1 construct: made in house
Procedure, shortened: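 Compounds, serially diluted 5-fold (twelve concentrations), were shaken for 90 min at 25° C with a mix of GST-MDM2 (4 nM final), Biotin-P53, anti-GST-Tb and SA-XL665. Buffer: 1×PBS, 0.1% BSA, 5 mM DTT, 1 mM AEBSF; signal read on a microplate reader.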

[2] = Pharmacokinetics in ICR mice after intravenous and intragastric administration; format: in vivo; conditions: for MRT last: read-out: MRT(0-t); for MRT inf: read-out: MRT(0-∞); for Vd: read-out: Vz
Procedure, shortened: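 Male ICR mice, fasted overnight, n=3 per route, given 2 mg/kg IV or 5 mg/kg intragastric in 5% DMSO/40% PEG400/55% (10% HP-β-CD in saline). Plasma drug levels measured by LC-MS/MS after protein precipitation (LLOQ 1 ng/mL); noncompartmental AUC, t1/2, MRT, Cmax, Tmax, F, Vz, CL derived.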

[3] = test system: human osteosarcoma cell line SJSA-1; experiment: Inhibition of proliferation of human osteosarcoma cell line SJSA-1 (DAPI staining, In Cell Analyzer); conditions: Homo sapiens, SJSA-1, 72 h, read-out: IC50 (nM), inhibitory activity on proliferation of human osteosarcoma cell line SJSA-1, SJSA-1, incubated 72 h
[4] = ICR mice, IV 2 mg/kg, individual animals 301-303, 2 mg/kg
[5] = ICR mice, PO 5 mg/kg, individual animals 401-403, 5 mg/kg
[6] = male, ICR, mouse, plasma, iv, 2 mg/kg, ICR mice, IV 2 mg/kg, individual animals 301-303
[7] = male, ICR, mouse, plasma, iv, 2 mg/kg, ICR mice, IV 2 mg/kg, mean of 3 animals
[8] = male, ICR, mouse, plasma, po, 5 mg/kg, ICR mice, PO 5 mg/kg, individual animals 401-403
[9] = male, ICR, mouse, plasma, po, 5 mg/kg, ICR mice, PO 5 mg/kg, mean of 3 animals

T1 sequence (Q00987 whole entry): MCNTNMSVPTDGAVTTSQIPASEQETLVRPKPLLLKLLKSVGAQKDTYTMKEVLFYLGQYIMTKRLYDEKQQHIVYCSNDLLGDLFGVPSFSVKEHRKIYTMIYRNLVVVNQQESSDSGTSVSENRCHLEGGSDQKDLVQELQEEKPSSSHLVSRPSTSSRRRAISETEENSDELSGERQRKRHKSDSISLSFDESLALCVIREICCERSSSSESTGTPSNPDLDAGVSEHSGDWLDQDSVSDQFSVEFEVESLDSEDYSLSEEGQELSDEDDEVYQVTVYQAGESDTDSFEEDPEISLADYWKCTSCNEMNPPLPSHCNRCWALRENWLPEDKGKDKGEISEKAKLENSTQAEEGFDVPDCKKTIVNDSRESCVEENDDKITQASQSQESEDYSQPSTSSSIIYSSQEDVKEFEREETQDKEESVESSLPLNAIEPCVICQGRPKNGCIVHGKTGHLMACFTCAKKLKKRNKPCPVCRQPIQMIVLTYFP

For `CCOc1ncc(-c2nc3c(n2C(C)C)[C@@]2(C(=O)Nc4cc(Cl)ccc42)N(c2cc(Cl)cnc2C)C3=O)c(OC)n1` [Example S-134, (S)-6-chloro-5′-(5-chloro-2-methylpyridin-3-yl)-2′-(2-ethoxy-4-methoxypyrimidin-5-yl)-3′-isopropyl-3′H-spiro[dihydroindole-3,4′-pyrrolo[3,4-d]imidazole]-2,6′(5′H)-dione], the IC50 [1] was 2.6 nM, the “AUC(0-t)” value [2, 4] was 7289.25 ng·h/mL and 6534.27 ng·h/mL and the “AUC(0-∞)” value [2, 4] was 7419.12 ng·h/mL and 6880.52 ng·h/mL. For the same compound, the CL [2, 4] was 4.49 mL/min/kg and 4.84 mL/min/kg, the Cmax [2, 4] was 4224.01 ng/mL and 3408.57 ng/mL and the “MRT(0-t)” value [2, 4] was 1.28 h and 1.50 h. The “MRT(0-∞)” value [2, 4] was 1.39 h and 1.83 h, the Tmax [2, 4] was 0.08 h and 0.25 h and the Vz [2, 4] was 0.42 L/kg and 0.61 L/kg. For the same compound, the t1/2 [2, 4] was 1.07 h and 1.47 h, the “F*” value ([2]; ICR mice, PO 5 mg/kg vs IV 2 mg/kg, mean) was 47.70% and the “AUC(0-t)” value [2, 5] was 7889.97 ng·h/mL and 4859.23 ng·h/mL. For the same compound, the “AUC(0-∞)” value [2, 5] was 8123.13 ng·h/mL and 4978.41 ng·h/mL, the Cmax [2, 5] was 3905.15 ng/mL and 3059.53 ng/mL and 1591.65 ng/mL and the “MRT(0-t)” value [2, 5] was 2.21 h. For the same compound, the “MRT(0-∞)” value [2, 5] was 2.28 h and 2.40 h, the Tmax [2, 5] was 0.25 h and the t1/2 [2, 5] was 1.54 h and 1.43 h. The AUC(0-inf) [2, 6] was 5060 ng·h/mL, the clearance [2, 6] was 6.59 mL/min/kg and the AUC(0-t) ([2]; male, ICR, mouse, plasma, iv, 2 mg/kg, ICR mice, IV 2 mg/kg, individual animals 301-303, read-out: AUC(0-t)) was 5020 ng·h/mL. For the same compound, the Cmax ([2]; male, ICR, mouse, plasma, iv, 2 mg/kg, ICR mice, IV 2 mg/kg, individual animals 301-303, read-out: Cmax) was 3520 ng/mL, the MRT last [2, 6] was 1.17 h and the MRT inf [2, 6] was 1.23 h. For the same compound, the Vd [2, 6] was 0.53 L/kg, the half-life ([2]; male, ICR, mouse, plasma, iv, 2 mg/kg, ICR mice, IV 2 mg/kg, individual animals 301-303, read-out: t1/2 (converted)) was 0.93 h and the AUC(0-inf) [2, 7] was 6450 ng·h/mL. It also gave a clearance [2, 7] of 5.31 mL/min/kg, an AUC(0-t) ([2]; male, ICR, mouse, plasma, iv, 2 mg/kg, ICR mice, IV 2 mg/kg, mean of 3 animals, read-out: AUC(0-t)) of 6280 ng·h/mL and a Cmax ([2]; male, ICR, mouse, plasma, iv, 2 mg/kg, ICR mice, IV 2 mg/kg, mean of 3 animals, read-out: Cmax) of 3720 ng/mL. For the same compound, the MRT last [2, 7] was 1.32 h, the MRT inf [2, 7] was 1.48 h and the Tmax ([2]; male, ICR, mouse, plasma, iv, 2 mg/kg, ICR mice, IV 2 mg/kg, mean of 3 animals, read-out: Tmax) was 0.14 h. It also gave a Vd [2, 7] of 0.52 L/kg, a half-life ([2]; male, ICR, mouse, plasma, iv, 2 mg/kg, ICR mice, IV 2 mg/kg, mean of 3 animals, read-out: t1/2 (converted)) of 1.15 h and an AUC(0-inf) [2, 8] of 9930 ng·h/mL. The AUC(0-t) ([2]; male, ICR, mouse, plasma, po, 5 mg/kg, ICR mice, PO 5 mg/kg, individual animals 401-403, read-out: AUC(0-t)) was 9720 ng·h/mL, the MRT last [2, 8] was 2.04 h and the MRT inf [2, 8] was 2.21 h. For the same compound, the Tmax ([2]; male, ICR, mouse, plasma, po, 5 mg/kg, ICR mice, PO 5 mg/kg, individual animals 401-403, read-out: Tmax) was 0.5 h, the half-life ([2]; male, ICR, mouse, plasma, po, 5 mg/kg, ICR mice, PO 5 mg/kg, individual animals 401-403, read-out: t1/2 (converted)) was 1.38 h and the AUC(0-inf) [2, 9] was 7680 ng·h/mL. For the same compound, the AUC(0-t) ([2]; male, ICR, mouse, plasma, po, 5 mg/kg, ICR mice, PO 5 mg/kg, mean of 3 animals, read-out: AUC(0-t)) was 7490 ng·h/mL, the Cmax ([2]; male, ICR, mouse, plasma, po, 5 mg/kg, ICR mice, PO 5 mg/kg, mean of 3 animals, read-out: Cmax) was 2850 ng/mL and the MRT last [2, 9] was 2.1 h. It also gave an MRT inf [2, 9] of 2.29 h, a Tmax ([2]; male, ICR, mouse, plasma, po, 5 mg/kg, ICR mice, PO 5 mg/kg, mean of 3 animals, read-out: Tmax) of 0.42 h and a half-life ([2]; male, ICR, mouse, plasma, po, 5 mg/kg, ICR mice, PO 5 mg/kg, mean of 3 animals, read-out: t1/2 (converted)) of 1.45 h. For the same compound, the AUC(0-t) ([2]; male, ICR, mouse, plasma, po, 5 mg/kg, oral intragastric administration 5 mg/kg, read-out: AUC0-t) was 7490 ng·h/mL, the half-life ([2]; male, ICR, mouse, plasma, po, 5 mg/kg, oral intragastric administration 5 mg/kg, read-out: half-life (converted)) was 1.45 h and the IC50 [3] was 82.2 nM.
